The values below come from patent US20120309677A1, “METHODS FOR REGULATING BLOOD GLUCOSE LEVELS” (Monash University, priority 2010, published 2012).

One assay has as its target hMC5R (Homo sapiens, UniProt P33032). To be noted: cited from earlier work.
The subject of a further assay is skeletal muscle cells. The experiment in a line: Glucose uptake in skeletal muscle cells with MC5R agonist. Format: cell-based.
Assay [1] in a line: Glucose disposal during ipGTT with systemic α-MSH infusion. To be noted: for glucose disposal during ipGTT: systemic infusion (external jugular vein) 1 μg/h. Format: in vivo, mice. As for the experimental part: Mice were instrumented with an arterial catheter (carotid artery) to monitor blood pressure (BP), heart rate (HR) and for sampling. At the same time, a venous catheter (jugular vein) was placed to infuse α-MSH (1 μg/h) for 3 h. Blood glucose was measured before and at 10 and 20 mins of α-MSH infusion. After that, mice received an ip glucose injection (GTT, 1 mg/g). Blood glucose levels were measured at 15, 30, 60 and 120 mins after glucose challenge. BP and […] were recorded during whole procedure. The results are shown in FIGS. 5A and 5B. **[…] vs saline infusion. In a further experiment, MC4R activity was blocked using agouti-related peptide (AgRP; 1.0 nmol, 1 μl) administered (by injection to the lateral ventricle) 1 hr before commencement of the α-MSH infusion.

A further assay has as its system adult monkey pituitaries. Put plainly: α-MSH release from halved pituitaries. To be noted: glucose 15 mM, insulin 200 nM, 45 min; FIG. 1A. Format: cell-based. As for the experimental part:
Adult monkey pituitaries (n=22) were halved and then treated separately with artificial cerebrospinal fluid (aCSF) equilibrated with 95% O2 and 5% CO2 and incubated at 37° C. After 1 hr equilibration period, halves were incubated for 45 min in aCSF (basal period) before being challenged with glucose (Glu): 15 mM, insulin (Ins): 200 nM or Glu+Ins (15 mM+200 nM) treatments for 45 min. […] This was confirmed by measurement of α-MSH in monkey pituitaries by radioimmunoassay after acidic extraction (FIG. 1B).

Assay [2] is described as follows: α-MSH levels after ip insulin injection. It counts as in vivo. To be noted: POMC-Kir6.2 mutant mice and control littermates; human insulin 1.0 U/kg ip; FIG. 3B. From the text: POMC-mutKIR6.2 mice is a mutant in which all POMC cells lack the capacity to sense glucose due to dysfunctional ATP/K+ channels. Mutants and wild-type littermates were fed a regular diet. Blood glucose and α-MSH samples were taken after ip injection of human insulin (1.0 U/kg). The results are shown in FIG. 3A. **P<0.01 vs baseline value in the respective group by repeated-measures ANOVA. # P<0.01 vs control littermate at the respective point by single measured.

The test system of assay [3] is Rat L6 skeletal muscle cells. The experiment in a line: Glucose uptake in differentiated L6 cells. The note with it: 100 nM α-MSH and/or 10 nM insulin; FIG. 10. Format: cell-based. As for the experimental part:
Rat L6 skeletal muscle cells were seeded in 12-well plates and differentiated in myotubes by replacing growth medium (DMEM+10% FBS) with DMEM+2% horse serum. Medium was changed every day for 1 week. Cells were preincubated for 20 min with no glucose medium+0.1% fatty acid-free BSA. 10 nM of insulin and/or 100 nM α-MSH was added to the corresponding wells. Glucose uptake was assessed for 15 min using 2-deoxy-D-[2,6-^3H]glucose (1 mmol/1, 0.5 μCi/ml) in the presence or absence of 10 nM insulin and 100 nM of α-MSH. Radioactivity was measured in cell lysates by liquid scintillation counting.

The subject of another assay is cAMP. The experiment in a line: cAMP levels in muscles after α-MSH infusion (immunoassay). It counts as in vivo. The note with it: control mice; 45 minutes of α-MSH infusion; FIG. 9A. As for the experimental part: To measure cAMP concentrations and to determine p-AMPK protein expression in muscles, an experiment was conducted according to a similar design to that described in FIG. 5. Muscle tissues were obtained after 45 minutes of initiating α-MSH infusion and 25 minutes of administering glucose injection. cAMP concentration was determined with a direct immunoassay kit (BioVision Research Products, Mountain View, Calif., United States of America). The kit has a cAMP polyclonal antibody onto the plate. cAMP-HRP conjugates directly compete with cAMP from sample binding to the cAMP antibody on the plate. The HRP activity at 450 nm is inversely proportional to the cAMP concentration in samples. White bars: saline infusion, dark bars: α-MSH infusion

A short description of assay [4]: Muscle temperature in sheep during α-MSH infusion. It counts as in vivo. On the procedure:
Four ovariectomised ewes were placed on a diet of temporal food restriction where food was made available between 11:00-16:00 h (as depicted by the grey box in FIGS. 4A and 4B). Animals were exposed to this feeding window for at least 2 weeks prior to experimentation. Then, one week before the onset of experiments, an indwelling cannulae was surgically inserted into the external jugular vein (experiment a) or femoral artery (experiment b). At the same time, a datalogger was implanted into the vastus lateralis muscle of the hindlimb and programmed to read temperature at 15 min intervals. Animals were treated with either α-MSH 100 μg/h (▾ triangles) for experiment a or 1 μg/h for experiment b or saline (800 μl/h, […]). Infusions were carried out between 10:00-19:00 h.

In assay [5] the test system is p-AMPK. Put plainly: p-AMPK levels in soleus muscles treated in vitro (Western blot). The note with it: lean mice; 1, 10 and 100 nM for 45 min in vitro; FIG. 8. Format: cell-based. As for the experimental part: Soleus muscles were dissected from anaesthetised mice. Muscles were incubated with α-MSH (at 1, 10, and 100 nM) for 45 min. After that, muscles were immediately homogenised in cold RIPA lysis buffer. Homogenates were centrifugated and supernatant were collected to measure protein contents ([…]). 50 μg of each sample was loaded on a 10% Tris-Glycine pre-cast gel. A liver protein sample was run as a positive control. The gel was then transferred onto an Immobilon PVDF membrane for 2 h and after blocking for 1 h with 5% milk in TBST, was incubated o/n with anti-p-AMPK antibody (1:1000; Cell Signaling Technology, Inc, Danvers, Mass., United States of America), anti-total AMPK (1:1000, Cell Signaling Technology, Inc), or anti-GAPDH antibody (1:20000). To avoid interferences with total AMPK antibody, membranes were stripped before incubating with this antibody. Goat anti-mouse IgG horseradish peroxidase (1:50000, Santa Cruz Biotechnology, Inc, Santa Cruz, Calif., United States of America) was used as secondary antibody.

In the next assay the test system is soleus muscles. Put plainly: Glucose uptake in isolated soleus muscles (2-deoxy-D-[3H]glucose). Format: cell-based, mice. The note with it: 100 nM, presence and absence of 10 nM insulin. As for the experimental part:
Mice were fasted overnight and soleus muscles were dissected from anaesthetised mice. Muscles were preincubated for 30 min with 1 ml of warmed (30° C.), pregassed (95% O2-5% CO2, pH 7.4), modified Krebs-Henseleit buffer supplemented with 2 mmol/l sodium pyruvate, 8 mmol/l mannitol, and 0.1% wt/vol BSA and were then incubated with or without 10 nM insulin, α-MSH (100 nM) or α-MSH plus insulin (100 nM+10 nM) for 20 min. Glucose uptake was assessed for 10 min using 2-deoxy-D-[2,6-^3H]glucose (1 mmol/1, 0.5 μCi/ml) in the presence or absence of 10 nM insulin. Radioactivity was measured in muscle lysates by liquid scintillation counting.

Assay [6] relates to p-AMPK. Put plainly: p-AMPK protein expression in muscles after α-MSH infusion (Western blot). The note with it: control mice, FIG. 9B. It counts as in vivo. On the procedure: To measure cAMP concentrations and to determine p-AMPK protein expression in muscles, an experiment was conducted according to a similar design to that described in FIG. 5. Muscle tissues were obtained after 45 minutes of initiating α-MSH infusion and 25 minutes of administering glucose injection. cAMP concentration was determined with a direct immunoassay kit (BioVision Research Products, Mountain View, Calif., United States of America). The kit has a cAMP polyclonal antibody onto the plate. cAMP-HRP conjugates directly compete with cAMP from sample binding to the cAMP antibody on the plate. The HRP activity at 450 nm is inversely proportional to the cAMP concentration in samples. White bars: saline infusion, dark bars: α-MSH infusion p-AMPK and total AMPK were determined by Western blot. Results shown in FIG. 9B are expressed as a ratio P/Total AMPK. *P<0.05

What is called EC50 is the concentration that produces a half-maximal response.

Sequence of hMC5R (P33032 whole entry): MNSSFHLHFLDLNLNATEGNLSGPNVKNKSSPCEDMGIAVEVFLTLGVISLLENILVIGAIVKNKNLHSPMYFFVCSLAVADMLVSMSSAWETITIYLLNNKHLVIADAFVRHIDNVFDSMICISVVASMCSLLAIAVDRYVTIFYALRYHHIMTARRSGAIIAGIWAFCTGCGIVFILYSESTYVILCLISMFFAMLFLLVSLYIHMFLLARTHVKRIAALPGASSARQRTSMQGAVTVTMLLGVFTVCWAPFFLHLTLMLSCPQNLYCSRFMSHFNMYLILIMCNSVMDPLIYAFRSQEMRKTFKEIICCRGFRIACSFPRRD

For the substance “Ac-Nle-c[Asp-Hyp-D-Nal(2′)-Arg-Trp-Lys]-NH2 [PG-911]”, the EC50 at hMC5R is 0.031 nM.
With “Ac-Nle-c[Asp-Pro-D-Nal(2′)-Arg-Trp-Lys]-NH2 (XDPXRWK; Ac, amide, cyclic lactam, Nle, D-Nal(2'); PG-901)”, the “increases of glucose uptake in skeletal muscle cells” value with skeletal muscle cells (1 nM and 5 nM amounts, FIG. 5D) was 30-40%. Besides, the “effect of an MC3R and MC4R antagonist on the increase of glucose uptake” value with skeletal muscle cells (1 nM and 5 nM amounts, data not shown) is “unaffected by the presence of an MC3R and MC4R antagonist”. In the assay with skeletal muscle cells (FIG. 5D), the “glucose uptake in muscle cells” value was “increases glucose uptake in muscle cells”.
In the case of “agouti-related peptide (SSRRCVRLHESCLGQQVPCCDPCATCYCRFFNAFCYCRKLGTAMNPCSRT; UniProt O00253 83-132, looked up) [AgRP, reference compound]”, the “effect on the response (increased glucose disposal) to α-MSH infusion” value in assay [1] (AgRP 1.0 nmol to lateral ventricle 1 hr before α-MSH infusion, to block MC4R, FIG. 5C) is “does not prevent the response”.
With insulin, in the assay with adult monkey pituitaries, the “α-MSH release from pituitaries” value is reported as “stimulate α-MSH release”. The “α-MSH levels in response to insulin” value in assay [2] is given as “do not change”. Further, the “glucose uptake by rat L6 cells” value in [3] is “increases in glucose uptake”.
As for “α-melanocyte stimulating hormone (SYSMEHFRWGKPV) [α-MSH, native peptide; native agonist for the type 1, 3, 4 and 5 melanocortin receptors]”, the “cAMP levels in muscles” value with cAMP is “increase of cAMP levels”. In addition, in [3], the “glucose uptake by rat L6 cells” value was “increases in glucose uptake”. Moreover, in assay [4] (direct infusion into femoral artery, 1 μg/h, FIG. 4B), the muscle temperature result was “causes an increase in muscle temperature”. The post-prandial muscle temperature result in [4] (systemic infusion (external jugular vein), 100 μg/h, FIG. 4A) is listed as “increases post-prandial muscle temperature”. For the same substance, the “response to α-MSH infusion” value in assay [1] (MC4R KO mice, data not shown) was “intact response”. For the same substance, the “glucose disposal during ipGTT” value was “increases glucose disposal” in assay [1] (control mice, FIG. 5A) and “does not increase glucose disposal” in assay [1] (obese (DIO) mice, FIG. 5B). Moreover, the p-AMPK muscle levels result with p-AMPK [5] was “dose-dependent increase of p-AMPK muscle levels”. For the same substance, the “glucose uptake in soleus muscles” value with soleus muscles (control mice, FIG. 6A) is “increases glucose uptake”; in the assay on soleus muscles (obese mice, FIG. 6B), “does not increase glucose uptake”. Also, the “p-AMPK protein expression in muscles (ratio P/Total AMPK)” value with p-AMPK [6] is “increased”.
